Measurements from patent US5364944A, “Substituted benzoylbenzene-, biphenyl- and 2-oxazole- alkanoic acid compounds” (American Home Products Corporation, priority 1993, dated 1994).

Experiments:
LTB4 = test: Reverse passive Arthus pleurisy assay, inflammatory mediator release: LTB4; format: in vivo, rat (male Lewis); settings: 25 mg/kg p.o., 3 hours before challenge
[1] = biological target: T1, LTD4-induced contractions of isolated guinea pig trachea (Cavia porcellus, UniProt Q2NNR5); test: In vitro isolated guinea pig trachea assay, LTD4 antagonist activity; parameters: species or system guinea pig (male Hartley); settings: 1 × 10^-5 M
T1 construct: isolated guinea pig trachea; from tissue; host or cells: tracheal rings of male Hartley guinea pigs
T1 sequence (Q2NNR5 1-340): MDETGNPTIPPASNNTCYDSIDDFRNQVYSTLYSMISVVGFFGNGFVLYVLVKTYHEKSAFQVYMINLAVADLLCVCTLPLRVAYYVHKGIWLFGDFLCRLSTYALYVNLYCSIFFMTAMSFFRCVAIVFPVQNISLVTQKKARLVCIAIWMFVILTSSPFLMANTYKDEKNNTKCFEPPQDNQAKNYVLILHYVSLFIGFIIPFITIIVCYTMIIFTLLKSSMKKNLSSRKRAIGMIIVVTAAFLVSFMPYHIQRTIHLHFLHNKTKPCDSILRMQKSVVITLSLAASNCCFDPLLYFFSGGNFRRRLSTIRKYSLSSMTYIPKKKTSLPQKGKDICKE
Procedure: The LTD4 antagonist activity of the compounds of the invention is assessed in the in vitro isolated guinea pig trachea assay. This assay is carried out as follows: Male Hartley guinea pigs (350-400 g) are euthanized by a blow to the head, the neck is opened and the trachea removed. The trachea is maintained in aerated physiological salt solution, cleared of connective tissue and fat and cut into rings approximately 2 mm in width (usually containing two cartilaginous segments per ring). Two pieces of silk suture are then passed through the lumen of the tracheal ting and are tied around the cartilage, one on each side of the trachealis muscle. The tracheal ring is suspended between a glass hook and a force displacement transducer in a 10 ml organ bath for measurement of isometric tension. […] The tracheal rings are maintained at 2 g resting tension and equilibrated for 45 minutes (with frequent washing and readjustment of resting tension). The tracheal […] contracted by the addition of carbachol (3×10^-6 M), to determine tissue responsiveness and establish a reference contraction. On attainment of a stable level of contraction (approximately 30 minutes), the tissues are washed several times until baseline tension has been restored and the re-equilibrated for 30 minutes. The tissues are then incubated for 45 minutes with a test antiagonist (either 1×10^-6 M or 1×10^-5 M) or 10 μl of an appropriate solvent control (control, nontreated). One tissue in each group serves as the control. Twenty minutes prior to the construction of the LTD4 cumulative concentration-response curve, L-[…]×10^-2 M final bath concentration) is added to inhibit bioconversion of LTD4 to LTE4. Only one LTD4 concentration-response curve is constructed in each tissue. All responses to LTD4 in an individual tissue are measured as a percentage of the reference contraction of that tissue to carbachol. LTD4 antagonist activity is determined by comparison of the concentration response curves of LTD4 in the presence and absence of antagonist. Assessment of the relative rightward shift of the antagonist treated curve relative to the solvent (control) treated tissue is calculated as a concentration ratio (Eq. A) and used in subsequent calculations to derive an antagonist pKB value (Eqs. B and C). […] If a compound is found to be active and/or depress the maximal response to LTD4, then a range of concentrations of the test compound should be used generating multiple concentration ratios which would then be used to perform a Schild analysis, and determination of a pA2 value where appropriate.

Kb [1]: > 10 µM
SMILES: CC(C(=O)N(C)O)c1ccc(-c2ccc(OCc3csc(-c4ccccc4)n3)cc2)cc1 (stereo not drawn) [Example 21, N-Hydroxy-N,α-dimethyl-4'-[(2-phenylthiazol-4-yl)methoxy][1,1'-biphenyl]-4-acetamide]
% Inhibition of LTB4 Synthesis (LTB4): 8%
